Consider 20 molecules from patent US8044198B2, “Sirtuin modulating compounds” (Sirtris Pharmaceuticals, Inc., priority 2005, dated 2011).

Molecules are shown by their SMILES. Like-named read-outs stand apart in the source and are kept apart here.

This assay deals with T1, SIRT1 (Homo sapiens, UniProt Q96EB6).
T1 sequence (Q96EB6 1-747): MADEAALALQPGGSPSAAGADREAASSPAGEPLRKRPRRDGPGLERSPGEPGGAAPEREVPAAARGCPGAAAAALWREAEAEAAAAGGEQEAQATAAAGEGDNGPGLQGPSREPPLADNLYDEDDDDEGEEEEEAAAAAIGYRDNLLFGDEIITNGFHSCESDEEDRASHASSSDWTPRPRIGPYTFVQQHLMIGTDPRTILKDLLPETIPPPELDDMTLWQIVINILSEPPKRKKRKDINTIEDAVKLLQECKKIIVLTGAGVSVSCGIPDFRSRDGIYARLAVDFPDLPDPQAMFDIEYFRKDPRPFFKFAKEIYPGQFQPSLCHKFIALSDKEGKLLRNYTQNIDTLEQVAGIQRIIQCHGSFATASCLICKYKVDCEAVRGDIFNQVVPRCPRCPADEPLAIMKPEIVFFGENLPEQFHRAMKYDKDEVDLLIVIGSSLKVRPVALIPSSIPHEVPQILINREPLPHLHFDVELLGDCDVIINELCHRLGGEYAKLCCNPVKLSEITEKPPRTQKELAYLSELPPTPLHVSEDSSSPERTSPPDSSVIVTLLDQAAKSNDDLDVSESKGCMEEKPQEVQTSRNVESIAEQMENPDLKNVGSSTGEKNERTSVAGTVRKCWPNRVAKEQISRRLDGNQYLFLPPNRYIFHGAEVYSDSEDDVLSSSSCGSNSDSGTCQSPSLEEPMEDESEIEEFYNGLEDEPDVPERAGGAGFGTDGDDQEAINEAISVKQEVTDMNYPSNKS
Kind of assay: SIRT1 mass spectrometry (MS) based deacetylation assay. On FOLD ACT. MS: test concentration or dose not given here. In kind it is biochemical.

The mark [1] stands for this setting: SIRT1 activation, mass spectrometry assay, read-out: ED50 MS ASSAY.
The mark [2] stands for this setting: fold activation of SIRT1, mass spectrometry assay.
The mark [3] stands for this setting: SIRT1 fold activation as determined by MS.
[4] abbreviates: fold activation of SIRT1 as determined by MS.
Where [5] appears, read: Sirt1 activators, fold activation as determined by MS.
Where [6] appears, read: Sirt1 activators, mass spectrometry assay, read-out: ED50 MS ASSAY.

Turning to `CN(C)c1cccc(C(=O)Nc2ccccc2-c2cn3ccccc3n2)c1` [Compound 268], the EC50 under setting [1] is less than 5 µM. Also, the “FOLD ACT. MS” value under setting [2] is on record as “B (B (Fold Activation <250%))”.
With `O=C(Nc1ccccc1-c1cn2c(CN3CCNCC3)csc2n1)c1cccc(OC(F)(F)F)c1` [Compound 698], the EC50 under setting [1] is less than 5 µM. Moreover, the “FOLD ACT. MS” value under setting [3] is on record as “A (A (Fold activation >250%))”.
On to `COc1ccc(C(=O)Nc2ccccc2-c2cn3cc(CN4CCNCC4)sc3n2)cc1OC` [Compound 270], for which the EC50 under setting [1] fell in the range of 5 to 50 µM. The “FOLD ACT. MS” value under setting [2] is listed as “A (A (Fold activation >250%))”.
For `COc1ccc(C(=O)Nc2ccccc2-c2nc3cnccc3o2)c(OC)c1OC` [Compound 421], in that order: 5 to 50 µM and “B (B (Fold Activation <250%))”.
As for `COc1cc(C(=O)Nc2ccccc2-c2cn3cc(CN(C)C)sc3n2)cc(OC)c1OC` [Compound 179], under setting [1], the EC50 is less than 5 µM. Moreover, the “FOLD ACT. MS” value under setting [4] is “A (A (Fold activation >250%))”.
Consider `CN(C)c1cccc(C(=O)Nc2ccc(-c3nc4ccncc4o3)cc2)c1` [Compound 408], for which, under setting [1], the EC50 was in the range of 51 to 100 µM. In addition, the “FOLD ACT. MS” value under setting [2] is reported as “B (B (Fold Activation <250%))”.
Consider `CN(C)c1ccc(C(=O)Nc2ccc(-c3nc4cnccc4s3)s2)cc1` [Compound 519], for which, under setting [5], the “FOLD ACT. MS” value is recorded as “B (B (Fold Activation <250%))”. For the same molecule, the EC50 under setting [6] was less than 5 µM.
On to `COc1ccc(C(=O)Nc2cccc(-c3nc4cccnc4o3)c2)cc1OC` [Compound 112], for which the EC50 under setting [1] lay in the range of 5 to 50 µM. For the same molecule, the “FOLD ACT. MS” value under setting [4] is “B (B (Fold Activation <250%))”.
Take `COc1cc(OC)cc(C(=O)Nc2ccccc2-c2nc3c(CN4CCNCC4)ccnc3s2)c1` [Compound 723]: the EC50 under setting [1] lay within 5 to 50 µM. Further, the “FOLD ACT. MS” value under setting [3] is reported as “A (A (Fold activation >250%))”.
`COc1ccc(OC(=O)Nc2ccccc2-c2nc3ncccc3o2)cc1OC` [Compound 670]: the EC50 is 5 to 50 µM. For the same molecule, the “FOLD ACT. MS” value under setting [5] is given as “B (B (Fold Activation <250%))”.
On to `COc1cc(C(=O)Nc2cccc(-c3nc4ccccc4[nH]3)n2)cc(OC)c1OC` [Compound 259], for which the EC50 under setting [1] is less than 5 µM. The “FOLD ACT. MS” value under setting [2] is listed as “A (A (Fold activation >250%))”.
Take `COc1cc(C(=O)Nc2cc(-c3nc4ncccc4o3)ccn2)ccc1CN1CCOCC1` [Compound 642]: under setting [5], the “FOLD ACT. MS” value is “B (B (Fold Activation <250%))”. In addition, under setting [6], the EC50 was greater than 150 µM.
Turning to `COc1cc(C(=O)Nc2ccccc2-c2nc3ccccc3[nH]2)cc(OC)c1OC` [Compound 293], the EC50 under setting [1] is less than 5 µM. Under setting [2], the “FOLD ACT. MS” value is “A (A (Fold activation >250%))”.
For `COc1cc(F)cc(C(=O)Nc2ccccc2-c2cn3c(CN4CCNCC4)csc3n2)c1` [Compound 743], the EC50 under setting [1] lay in the range of 5 to 50 µM. In addition, the “FOLD ACT. MS” value under setting [3] is “A (A (Fold activation >250%))”.
As to `O=C(Nc1ccccc1-c1nc2cc(CN3CCNCC3)cnc2s1)c1ccc(F)c(F)c1` [Compound 594], under setting [5], the “FOLD ACT. MS” value was “B (B (Fold Activation <250%))”. Further, the EC50 under setting [6] lay within 5 to 50 µM.
On to `COc1ccc(C(=O)Nc2ccc(C)cc2-c2nc3ccccc3[nH]2)cc1OC` [Compound 507], for which the “FOLD ACT. MS” value under setting [5] is reported as “A (A (Fold activation >250%))”. The EC50 under setting [6] is less than 5 µM.
Consider `COc1cccc(OC)c1C(=O)Nc1cccc(-c2nc3ccccc3[nH]2)c1` [Compound 126], for which the EC50 under setting [1] was 5 to 50 µM. Also, the “FOLD ACT. MS” value under setting [4] is recorded as “B (B (Fold Activation <250%))”.
For the molecule `COc1cc(C(=O)Nc2ccccc2-c2nc3cccnc3[nH]2)ccc1CN1CCNCC1` [Compound 538], the “FOLD ACT. MS” value under setting [5] is on record as “A (A (Fold activation >250%))”. The EC50 under setting [6] was 5 to 50 µM.
Regarding `O=c1[nH]c2ccc(S(=O)(=O)Nc3cccc(-c4nc5ccncc5s4)c3)cc2o1` [Compound 399], the EC50 under setting [1] lay within 5 to 50 µM. Under setting [2], the “FOLD ACT. MS” value is recorded as “B (B (Fold Activation <250%))”.
`COc1ccc(C(=O)Nc2cccc(-c3nc4ccccc4[nH]3)n2)cc1OC` [Compound 260]: the EC50 under setting [1] was less than 5 µM. In addition, the “FOLD ACT. MS” value under setting [2] is reported as “A (A (Fold activation >250%))”.
